In PubChem BioAssay AID330 (DTP/NCI, 2004):
Several values for one entry are separate records, joined by “and”; a condition that tells them apart may be missing. Identical values can stand only once. Inconclusive results and toxic doses are left out.

Test system: P388 leukemia ip, CD2F1 mice, survival T/C
Assay: NCI In Vivo Anticancer Drug Screen. Data for tumor model P388 Leukemia (intraperitoneal) in CD2F1 (CDF1) mice
Details: endpoint: median survival time, higher = longer survival
Summary of the method: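 Mice carrying the transplanted tumor received test compound or vehicle. Survival was recorded in each group, and the value is the treated-group measurement divided by that of the vehicle-treated control group.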

[1] = dose: 60.0 mg/kg/injection, schedule: Q01DX005 (ip), vehicle: saline with Tween-80
[2] = dose: 120.0 mg/kg/injection, schedule: Q01DX005 (ip), vehicle: saline with Tween-80
[3] = dose: 240.0 mg/kg/injection, schedule: Q01DX005 (ip), vehicle: saline with Tween-80
[4] = dose: 60.0 mg/kg/injection, schedule: Q01DX005 (ip), vehicle: Klucel (hydroxypropylcellulose) (HPC)
[5] = dose: 120.0 mg/kg/injection, schedule: Q01DX005 (ip), vehicle: Klucel (hydroxypropylcellulose) (HPC)
[6] = dose: 240.0 mg/kg/injection, schedule: Q01DX005 (ip), vehicle: Klucel (hydroxypropylcellulose) (HPC)
[7] = dose: 50.0 mg/kg/injection, schedule: Q01DX009 (ip), vehicle: saline with Tween-80
[8] = dose: 100.0 mg/kg/injection, schedule: Q01DX009 (ip), vehicle: saline with Tween-80
[9] = dose: 200.0 mg/kg/injection, schedule: Q01DX009 (ip), vehicle: saline with Tween-80
[10] = dose: 50.0 mg/kg/injection, schedule: Q01DX009 (ip), vehicle: Klucel (hydroxypropylcellulose) (HPC)
[11] = dose: 100.0 mg/kg/injection, schedule: Q01DX009 (ip), vehicle: Klucel (hydroxypropylcellulose) (HPC)
[12] = dose: 200.0 mg/kg/injection, schedule: Q01DX009 (ip), vehicle: Klucel (hydroxypropylcellulose) (HPC)
[13] = dose: 50.0 mg/kg/injection, schedule: Q01DX009 (ip), vehicle: saline
[14] = dose: 200.0 mg/kg/injection, schedule: Q01DX009 (ip), vehicle: saline
[15] = dose: 50.0 mg/kg/injection, schedule: Q01DX005 (ip), vehicle: saline with Tween-80
[16] = dose: 100.0 mg/kg/injection, schedule: Q01DX005 (ip), vehicle: saline with Tween-80
[17] = dose: 200.0 mg/kg/injection, schedule: Q01DX005 (ip), vehicle: saline with Tween-80
[18] = dose: 15.0 mg/kg/injection, schedule: Q01DX005 (ip), vehicle: saline with Tween-80
[19] = dose: 30.0 mg/kg/injection, schedule: Q01DX005 (ip), vehicle: saline with Tween-80
[20] = dose: 50.0 mg/kg/injection, schedule: Q01DX005 (ip), vehicle: Klucel (hydroxypropylcellulose) (HPC)
[21] = dose: 100.0 mg/kg/injection, schedule: Q01DX005 (ip), vehicle: Klucel (hydroxypropylcellulose) (HPC)
[22] = dose: 200.0 mg/kg/injection, schedule: Q01DX005 (ip), vehicle: Klucel (hydroxypropylcellulose) (HPC)

For `COC1/C=C\C=C(/C)C(=O)NC2=CC(=O)C(N)=C(CC(C)CC(OC)C(O)C(C)C=C(C)C1OC(N)=O)C2=O` (stereo not given), the T/C (dose: 0.75 mg/kg/injection, schedule: Q01DX009 (ip), vehicle: saline with Tween-80) was 103 % of control, the T/C (dose: 1.5 mg/kg/injection, schedule: Q01DX009 (ip), vehicle: saline with Tween-80) was 105 % of control and the T/C (dose: 3.0 mg/kg/injection, schedule: Q01DX009 (ip), vehicle: saline with Tween-80) was 111 % of control. The T/C (dose: 6.0 mg/kg/injection, schedule: Q01DX009 (ip), vehicle: saline with Tween-80) was 87 % of control.

For `S=C(N/N=C\c1nc2ccccc2c2ccccc12)Nc1ccc(Cl)cc1`, the T/C (dose: 100.0 mg/kg/injection, schedule: Q04DX002 (ip), vehicle: Klucel (hydroxypropylcellulose) (HPC)) was 90 % of control, the T/C (dose: 200.0 mg/kg/injection, schedule: Q04DX002 (ip), vehicle: Klucel (hydroxypropylcellulose) (HPC)) was 96 % of control and the T/C (dose: 400.0 mg/kg/injection, schedule: Q04DX002 (ip), vehicle: Klucel (hydroxypropylcellulose) (HPC)) was 96 % of control.

In the case of `COc1cc(C2c3cc4c(cc3OC(N3CCCC3)C2C)OCO4)cc(OC)c1OC` (stereo not given), the T/C [1] is reported as 90 % of control, the T/C [2] is reported as 93 % of control and the T/C [3] is reported as 104 % of control.

In the case of `O=C1C2CN(Cc3ccccc3)CC2C(=O)N1c1ccccc1` (stereo not given), the T/C [4] is reported as 102 % of control, the T/C [5] is reported as 97 % of control and the T/C [6] is reported as 100 % of control.

With `CCOC(=O)Nc1ccc2nc(N3CCCCCC3)sc2c1` the T/C [7] was 101 % of control, the T/C [8] was 100 % of control and the T/C [9] was 102 % of control.

`O=C(OCc1ccccc1)SS(=O)(=O)O` was tested, and the T/C [10] was 95 % of control, the T/C [11] was 110 % of control and the T/C [12] was 119 % of control.

In the case of `COc1ccc(N=Nc2ncc(N)nc2N)cc1`, the T/C [4] is reported as 107 % of control, the T/C [5] is reported as 108 % of control and the T/C [6] is reported as 96 % of control.

For `Cc1cc(C)n2nc(CC#N)c(C#N)c2n1`, the T/C (dose: 12.5 mg/kg/injection, schedule: Q01DX009 (ip), vehicle: Klucel (hydroxypropylcellulose) (HPC)) was 109 % of control, the T/C (dose: 25.0 mg/kg/injection, schedule: Q01DX009 (ip), vehicle: Klucel (hydroxypropylcellulose) (HPC)) was 100 % of control and 107 % of control and 97 % of control and the T/C [10] was 100 % of control and 105 % of control and 109 % of control. The T/C [11] was 123 % of control and 94 % of control and 97 % of control.

With `O=NN(c1cccc(C(F)(F)F)c1)c1ccccn1` the T/C (dose: 25.0 mg/kg/injection, schedule: Q01DX009 (ip), vehicle: other) was 100 % of control, the T/C (dose: 50.0 mg/kg/injection, schedule: Q01DX009 (ip), vehicle: other) was 108 % of control and the T/C (dose: 100.0 mg/kg/injection, schedule: Q01DX009 (ip), vehicle: other) was 106 % of control. The T/C (dose: 200.0 mg/kg/injection, schedule: Q01DX009 (ip), vehicle: other) was 104 % of control and the T/C (dose: 400.0 mg/kg/injection, schedule: Q01DX009 (ip), vehicle: other) was 108 % of control.

For `CCOC(=O)c1[nH]c(C)nc1/N=N/N(C)C`, the T/C (dose: 25.0 mg/kg/injection, schedule: Q01DX009 (ip), vehicle: saline) was 119 % of control, the T/C [13] was 116 % of control and the T/C [14] was 116 % of control.

`O=N[O-].O=N[O-].[NH-]CC[NH-].[Pt+2]` was tested, and the T/C (dose: 25.0 mg/kg/injection, schedule: Q01DX009 (ip), vehicle: saline with Tween-80) was 95 % of control, the T/C [7] was 100 % of control and the T/C [8] was 95 % of control.

`COc1cccc2c1C(=O)c1c(O)c3c(c(O)c1C2=O)C[C@@](O)(C(=O)COc1ccccc1)C[C@@H]3OC1CC(N)C(O)C(C)O1` (stereo not given in full) was tested, and the T/C (dose: 1.56 mg/kg/injection, schedule: Q01DX009 (ip), vehicle: water) was 151 % of control and 169 % of control, the T/C (dose: 3.13 mg/kg/injection, schedule: Q01DX009 (ip), vehicle: water) was 155 % of control and 179 % of control and the T/C (dose: 6.25 mg/kg/injection, schedule: Q01DX009 (ip), vehicle: water) was 174 % of control and 186 % of control. The T/C (dose: 12.5 mg/kg/injection, schedule: Q01DX009 (ip), vehicle: water) was 176 % of control and 179 % of control.

For `O=S(=O)(C#Cc1ccccc1)C(F)(F)C(F)(F)C(F)(F)C(F)(F)F`, the T/C (dose: 100.0 mg/kg/injection, schedule: Q01DX001 (ip), vehicle: saline) was 116 % of control, the T/C (dose: 200.0 mg/kg/injection, schedule: Q01DX001 (ip), vehicle: saline) was 115 % of control and the T/C (dose: 400.0 mg/kg/injection, schedule: Q01DX001 (ip), vehicle: saline) was 102 % of control.

With `COc1ccc(C2CC(C)(N3CCCC3)Oc3cc4c(cc32)OCO4)c(OC)c1` (stereo not given) the T/C [15] was 99 % of control, the T/C [16] was 96 % of control and the T/C [17] was 86 % of control.

With `CC(C)N=Cc1ccccc1O.CC(C)N=Cc1ccccc1O.[Co]` the T/C (dose: 12.5 mg/kg/injection, schedule: Q04DX003 (ip), vehicle: saline sonified) was 110 % of control, the T/C (dose: 25.0 mg/kg/injection, schedule: Q04DX003 (ip), vehicle: saline sonified) was 100 % of control and the T/C (dose: 50.0 mg/kg/injection, schedule: Q04DX003 (ip), vehicle: saline sonified) was 105 % of control.

With `CN1C(=O)N(C)C2=NC(=O)N(C)C2(C(Cl)(Cl)Cl)C1=O` (stereo not given) the T/C (dose: 7.5 mg/kg/injection, schedule: Q01DX005 (ip), vehicle: saline with Tween-80) was 103 % of control, the T/C [18] was 102 % of control and the T/C [19] was 112 % of control. For the same molecule, the T/C [1] was 112 % of control.

With `O=c1oc(-c2cccc(-c3nc4c(c(=O)o3)CCS4)c2)nc2c1CCS2` the T/C [20] was 97 % of control, the T/C [21] was 100 % of control and the T/C [22] was 91 % of control.

With `C=Cn1c([N+](=O)[O-])cnc1/C=C\c1ccc(C(=O)NC(C)C)cc1` the T/C (dose: 100.0 mg/kg/injection, schedule: Q04DX002 (ip), vehicle: gum acacia) was 92 % of control, the T/C (dose: 200.0 mg/kg/injection, schedule: Q04DX002 (ip), vehicle: gum acacia) was 96 % of control and the T/C (dose: 400.0 mg/kg/injection, schedule: Q04DX002 (ip), vehicle: gum acacia) was 92 % of control.

`Cc1cc(Cl)nc2nc(Cl)ccc12` was tested, and the T/C [15] was 101 % of control and the T/C [16] was 93 % of control.

In the case of `CCOC(=O)[C@H]1CC[C@@H](C(=O)OCC)N1Sc1ccc([N+](=O)[O-])cc1[N+](=O)[O-]`, the T/C [15] is reported as 102 % of control, the T/C [16] is reported as 102 % of control and the T/C [17] is reported as 102 % of control.

For `CCC(C)C(NC=O)C(=O)O` (stereo not given), the T/C [15] was 93 % of control, the T/C [16] was 100 % of control and the T/C [17] was 100 % of control.

In the case of `NC(N)=NCCCC(N)C(=O)CC(Cc1ccccc1)C(=O)O` (stereo not given), the T/C (dose: 8.8 mg/kg/injection, schedule: Q01DX005 (ip), vehicle: water) is reported as 104 % of control, the T/C (dose: 17.0 mg/kg/injection, schedule: Q01DX005 (ip), vehicle: water) is reported as 108 % of control and the T/C (dose: 34.0 mg/kg/injection, schedule: Q01DX005 (ip), vehicle: water) is reported as 106 % of control. The T/C (dose: 68.0 mg/kg/injection, schedule: Q01DX005 (ip), vehicle: water) was 100 % of control.

With `c1ccc(-c2cc3c(cc4c5nncn5ncn34)o2)cc1` the T/C [1] was 86 % of control, the T/C [2] was 86 % of control and the T/C [3] was 91 % of control and 92 % of control.

`CC(=O)OCc1c(-c2ccccc2)c(=O)c1=O` was tested, and the T/C [18] was 100 % of control, the T/C [19] was 103 % of control and the T/C [4] was 108 % of control. The T/C [1] was 106 % of control.

With `O=c1[nH]cnc2nc(Cl)[nH]c12` the T/C [20] was 98 % of control, the T/C [21] was 98 % of control and the T/C [22] was 95 % of control.

With `Cc1ccccc1NC(=O)c1ccc([N+](=O)[O-])cc1` the T/C [8] was 100 % of control, the T/C [9] was 104 % of control and the T/C (dose: 400.0 mg/kg/injection, schedule: Q01DX009 (ip), vehicle: saline with Tween-80) was 90 % of control.

In the case of `CCCc1[nH]n(-c2ccccc2)c(=O)c1N=Nc1ccc(Cl)cc1`, the T/C [13] is reported as 96 % of control, the T/C (dose: 100.0 mg/kg/injection, schedule: Q01DX009 (ip), vehicle: saline) is reported as 100 % of control and the T/C [14] is reported as 101 % of control.

In the case of `N/C(=N\O)c1c(Br)n(C2OC(CO)C(O)C2O)c2ncnc(N)c12` (stereo not given), the T/C [1] is reported as 109 % of control and 122 % of control, the T/C [2] is reported as 120 % of control and 122 % of control and the T/C [3] is reported as 116 % of control. The T/C (dose: 480.0 mg/kg/injection, schedule: Q01DX005 (ip), vehicle: saline with Tween-80) was 114 % of control.

With `NN=c1c2ccccc2oc2ccccc12` the T/C [10] was 112 % of control, the T/C [11] was 115 % of control and the T/C [12] was 115 % of control.
